Data on 13 molecules can be found in US12459890B2, “Salt and crystal form of compound having agonistic activity to S1P5 receptor” (ONO PHARMACEUTICAL CO., LTD., priority 2019, dated 2025).

In one series the target is human S1P5 (EDG-8) (Homo sapiens, UniProt Q9H228). The series is described as follows: S1P receptor agonist activity by monitoring intracellular calcium concentration (S1P5). The class given is cell-based. As to conditions: for S1P5 receptor agonist activity: CHO cells overexpressing human S1P5, intracellular calcium, S1P = 100%; for balance of S1P5 receptor agonist activity with respect to S1P1 receptor (selectivity): comparison of agonist activities on S1P1 and S1P5. As for the experimental part:
(§1) Chinese hamster ovary (CHO) cells in which human S1P1 (EDG-1) or human S1P5 (EDG-8) genes were overexpressed were cultured in Ham's F-12 medium containing 10% FBS (fetal bovine serum), penicillin/streptomycin, and geneticin (0.25 mg/mL). The medium was changed one day before the calcium assay was performed and on the day of the assay. Four hours after medium exchange, medium was removed and washed once with phosphate buffered saline. 0.05% Trypsin EDTA was added thereto to exfoliate the cells, and then a medium was added to recover the cells. The collected cell suspension was centrifuged to remove the supernatant, and suspended in phosphate buffered saline to count the number of cells. The cells were suspended in a Hanks solution containing Calcium 6 Assay Reagent (manufactured by Molecular Devices), 20 mM HEPES and 2.5 mM Probenecid so as to be 1.1×10^6 cells/mL, and incubated at 37° C. for about 1 hour. Thereafter, the supernatant was removed by centrifugation, and the cells were suspended in a Hanks solution containing 20 mM HEPES, 2.5 mM Probenecid and 0.1% BSA so as to be 2.2×10^6 cells/mL. The suspension was seeded in a 96 well plate at 80 μL/well. A plate was set in a fluorescent drug screening system (FDSS6000), Compound I or a comparative compound, and S1P were sequentially added, and an increase in intracellular calcium concentration before and after addition was measured at an excitation wavelength of 480 nm and a fluorescence wavelength of 540 nm. The increase in intracellular calcium concentration was evaluated by signal intensity at a fluorescence wavelength, and the agonist activity of each compound was calculated with the signal intensity when S1P was added instead of the compound as 100% activity.
For orientation: Calcium assays in cells follow changes in intracellular calcium, usually with a dye or a luminescent sensor.

A further series concerns the target human S1P1 (EDG-1) (Homo sapiens, UniProt P21453). The series is described as follows: S1P receptor agonist activity by monitoring intracellular calcium concentration (S1P1). The settings on record: CHO cells overexpressing human S1P1, intracellular calcium, S1P = 100%. The format is cell-based. How it is done:
as §1

The nature of series [1]: Measurement of clearance in rats. The class given is in vivo, rat. The settings on record: male SD rats, fasted, tail-intravenous administration, plasma. As for the experimental part:
A solution of Compound I was tail-intravenously administered to male SD rats under fasted conditions. After administration, rats were retained by a manual method at regular time intervals, and blood was collected from the jugular vein with sodium heparin.
The blood was centrifuged at 10,000 g, 3 min, 4° C. to obtain plasma. Concentration of Compound I in the plasma was measured by LC/MS/MS. Clearance was calculated from the plasma concentration transition using pharmacokinetic analysis software Phoenix WinNonlin (Certara USA, Inc.).

For series [2], the system named is mouse experimental autoimmune encephalomyelitis model. The series can be described thus: Effectiveness in mouse experimental autoimmune encephalomyelitis model. The class given is in vivo. The settings on record: female C57BL/J mice, MOG35-55 immunization, oral once a day for 30 days. How it is done: Female C57BL/J mice (Charles River Laboratories Japan, Inc., age at start of experiment: 7 or 8 weeks of age) were used. Myelin Oligodendrocyte Glycoprotein [sequence 35-55 […] (AnaSpec, Inc., hereinafter MOG35-55)] was dissolved in physiological saline (Otsuka Pharmaceutical Factory, Inc.) to prepare a 2 mg/mL solution. The 2 mg/mL solution of MOG35-55 and an equal amount of FCA H37Ra (Difco Laboratories) were mixed to prepare an emulsion, and the emulsion was used as an inducing agent. Immunization was performed by subcutaneously administering 0.2 mL of the inducing agent into the mouse flank using a glass syringe equipped with a 26G injection needle. […]
After dividing into groups, administration of a test substance (Compound I), a positive control compound (FTY720; fingolimod), or a vehicle (water for injection) was started on the same day, and each test substance was repetitively orally administered once a day for 30 days from the day before the immunization to day 28 of immunization. The amount of the solution to be administered was calculated based on the individual body weight on the day of administration. […]

Series [3] can be described thus: Chemical stability test (residual rate by HPLC after storage). The class given is physicochemical. As to conditions: vs sample stored at −20° C. As for the experimental part: Stability of the salts and/or crystal forms of the present invention was studied under the storage conditions of Condition 1 or Condition 2. After storage, the residual rate (%) of the stored sample under each condition was calculated by HPLC based on the area percentage of the sample stored at −20° C.
• Condition 1 60° C.: 1 month: pulverized • Condition 2 80° C.: 1 week: unpulverized
Comparison object of each sample was stored at −20° C.

[4] abbreviates: Condition 1: 60° C.: 1 month: pulverized.
Setting [5] is: Condition 2: 80° C.: 1 week: unpulverized.

Molecules are shown by their SMILES.

human S1P5 (EDG-8), sequence (Q9H228 whole entry): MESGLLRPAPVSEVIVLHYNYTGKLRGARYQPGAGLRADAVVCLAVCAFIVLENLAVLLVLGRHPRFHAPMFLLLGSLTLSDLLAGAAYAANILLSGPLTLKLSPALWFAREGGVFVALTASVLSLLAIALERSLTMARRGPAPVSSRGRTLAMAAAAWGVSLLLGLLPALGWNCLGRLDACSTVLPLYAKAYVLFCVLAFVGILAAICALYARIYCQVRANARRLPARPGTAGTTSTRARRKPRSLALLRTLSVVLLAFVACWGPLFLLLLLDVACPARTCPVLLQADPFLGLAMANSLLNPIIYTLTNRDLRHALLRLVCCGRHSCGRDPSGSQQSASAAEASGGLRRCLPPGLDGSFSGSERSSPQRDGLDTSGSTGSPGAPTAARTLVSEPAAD
human S1P1 (EDG-1), sequence (P21453 whole entry): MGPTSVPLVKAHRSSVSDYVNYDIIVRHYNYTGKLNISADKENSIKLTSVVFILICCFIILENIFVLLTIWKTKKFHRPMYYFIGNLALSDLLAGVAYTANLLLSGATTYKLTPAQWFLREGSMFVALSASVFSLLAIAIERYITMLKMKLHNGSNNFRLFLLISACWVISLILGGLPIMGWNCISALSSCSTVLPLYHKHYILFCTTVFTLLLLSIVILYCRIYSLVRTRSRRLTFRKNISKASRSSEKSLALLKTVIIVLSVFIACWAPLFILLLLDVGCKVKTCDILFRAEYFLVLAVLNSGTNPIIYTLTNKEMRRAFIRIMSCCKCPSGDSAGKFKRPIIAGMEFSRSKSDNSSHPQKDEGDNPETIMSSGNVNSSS

On to `CCCCCCCCOc1ccc2c(c1)CCC(CN1CC(C(=O)O)C1)=C2C.Cl` [Comparative Compound A, 1-{[1-methyl-6-(octyloxy)-3,4-dihydro-2-naphthalenyl]methyl}-3-azetidine carboxylic acid hydrochloride], for which, at human S1P5 (EDG-8), the “S1P5 receptor agonist activity” value was “had both S1P1 and S1P5 receptor agonist activities”; the “balance of S1P5 receptor agonist activity with respect to S1P1 receptor (selectivity)” value (“balance … (selectivity)” below) is reported as “S1P1 receptor agonist activity being stronger than S1P5 receptor agonist activity”. The “S1P1 receptor agonist activity” value on human S1P1 (EDG-1) was “had both S1P1 and S1P5 receptor agonist activities”.

Regarding `CCCc1ccc(COc2ccc3c(c2)CCC(CN2CC(C(=O)O)C2)=C3C)c(OC)c1` [Comparative Compound B, 1-({6-[(2-methoxy-4-propylbenzyl)oxy]-1-methyl-3,4-dihydro-2-naphthalenyl}methyl)-3-azetidine carboxylic acid], at human S1P5 (EDG-8), the “S1P5 receptor agonist activity” value is “had both S1P1 and S1P5 receptor agonist activities”; the “balance … (selectivity)” value is given as “S1P1 receptor agonist activity being stronger than S1P5 receptor agonist activity”. For the same molecule, at human S1P1 (EDG-1), the “S1P1 receptor agonist activity” value is “had both S1P1 and S1P5 receptor agonist activities”. With `COc1ccc2c(c1)C[C@H](C)C(CN1CC(F)(C(=O)O)C1)=C2` [Comparative Example, (S)-3-Fluoro-1-[(6-methoxy-3-methyl-3,4-dihydronaphthalen-2-yl)methyl]azetidine-3-carboxylic acid], the “S1P5 receptor agonist activity” value at human S1P5 (EDG-8) is “did not have S1P1 and S1P5 receptor agonist activities”. Also, at human S1P1 (EDG-1), the “S1P1 receptor agonist activity” value is “did not have S1P1 and S1P5 receptor agonist activities”.

Turning to `C[C@H]1Cc2cc(OCCCC(F)(F)F)ccc2C=C1CN1CC(C(=O)O)C1` [Compound I, 1-[[(3S)-3-Methyl-6-(4,4,4-trifluorobutoxy)-3,4-dihydronaphthalen-2-yl]methyl]azetidine-3-carboxylic acid], the “balance … (selectivity)” value at human S1P5 (EDG-8) was “selective agonist activity on the S1P5 receptor”. Further, in series [1], the Clearance result is given as “low clearance”. For the same molecule, the “effectiveness in EAE model (neurological symptom score)” value in series [2] is “shows effectiveness”.

As to `C[C@H]1Cc2cc(OCCCC(F)(F)F)ccc2C=C1CN1CC(C(=O)O)C1` [Example 7, 1-[[(3S)-3-methyl-6-(4,4,4-trifluorobutoxy)-3,4-dihydronaphthalen-2-yl]methyl]azetidine-3-carboxylic acid], the “Residual rate (%)” value in series [3] (setting [4]) is recorded as 99.1%. The same measure, in the same setting: the same measure for `C[C@H]1Cc2cc(OCCCC(F)(F)F)ccc2C=C1CN1CC(C(=O)O)C1.O` [Example 8, hydrate of 1-[[(3S)-3-methyl-6-(4,4,4-trifluorobutoxy)-3,4-dihydronaphthalen-2-yl]methyl]azetidine-3-carboxylic acid]: 97.8%. As for `C[C@H]1Cc2cc(OCCCC(F)(F)F)ccc2C=C1CN1CC(C(=O)O)C1.O=C(O)c1ccccc1` [Example 9, monobenzoate of 1-[[(3S)-3-methyl-6-(4,4,4-trifluorobutoxy)-3,4-dihydronaphthalen-2-yl]methyl]azetidine-3-carboxylic acid], in series [3] (setting [4]), the “Residual rate (%)” value is 97.9%. Turning to `C[C@H]1Cc2cc(OCCCC(F)(F)F)ccc2C=C1CN1CC(C(=O)O)C1.O=C(O)c1ccc(O)cc1` [Example 10, mono(4-hydroxybenzoate) of 1-[[(3S)-3-methyl-6-(4,4,4-trifluorobutoxy)-3,4-dihydronaphthalen-2-yl]methyl]azetidine-3-carboxylic acid], the “Residual rate (%)” value in series [3] (setting [4]) was found to be 99.4%; in series [3] (setting [5]), 99.6%. Turning to `C[C@H]1Cc2cc(OCCCC(F)(F)F)ccc2C=C1CN1CC(C(=O)O)C1.O.O=C(O)c1ccc(O)cc1` [Example 12, hydrate of mono(4-hydroxybenzoate) of 1-[[(3S)-3-methyl-6-(4,4,4-trifluorobutoxy)-3,4-dihydronaphthalen-2-yl]methyl]azetidine-3-carboxylic acid], in series [3] (setting [4]), the “Residual rate (%)” value came out at 95.3%. Still for that read-out and setting: the same measure for `C[C@H]1Cc2cc(OCCCC(F)(F)F)ccc2C=C1CN1CC(C(=O)O)C1.C[C@H]1Cc2cc(OCCCC(F)(F)F)ccc2C=C1CN1CC(C(=O)O)C1.O=S(=O)(O)O` [Example 13, hemisulfate of 1-[[(3S)-3-methyl-6-(4,4,4-trifluorobutoxy)-3,4-dihydronaphthalen-2-yl]methyl]azetidine-3-carboxylic acid]: 97.1%.

For the molecule `C[C@H]1Cc2cc(OCCCC(F)(F)F)ccc2C=C1CN1CC(C(=O)O)C1.N[C@@H](Cc1c[nH]c2ccccc12)C(=O)O` [Example 14, mono-tryptophan salt of 1-[[(3S)-3-methyl-6-(4,4,4-trifluorobutoxy)-3,4-dihydronaphthalen-2-yl]methyl]azetidine-3-carboxylic acid], the “Residual rate (%)” value in series [3] (setting [4]) worked out at 99.1%; in series [3] (setting [5]) it was 99.6%.

On to `C[C@H]1Cc2cc(OCCCC(F)(F)F)ccc2C=C1CN1CC(C(=O)O)C1.C[C@H]1Cc2cc(OCCCC(F)(F)F)ccc2C=C1CN1CC(C(=O)O)C1.O=C(O)CCC(=O)O` [Example 15, hemisuccinate of 1-[[(3S)-3-methyl-6-(4,4,4-trifluorobutoxy)-3,4-dihydronaphthalen-2-yl]methyl]azetidine-3-carboxylic acid], for which the “Residual rate (%)” value in series [3] (setting [5]) came to 99.1%. Still for that read-out and setting: then `C[C@H]1Cc2cc(OCCCC(F)(F)F)ccc2C=C1CN1CC(C(=O)O)C1.C[C@H]1Cc2cc(OCCCC(F)(F)F)ccc2C=C1CN1CC(C(=O)O)C1.O=C(O)CCCCC(=O)O` [Example 16, hemiadipate of 1-[[(3S)-3-methyl-6-(4,4,4-trifluorobutoxy)-3,4-dihydronaphthalen-2-yl]methyl]azetidine-3-carboxylic acid], with 95.8%.
